Measured values taken from BindingDB's records for doi:10.1007/s002100000327 (Leicester Royal Infirmary, 2001).

How the values were obtained:
[1] = target: Delta-type opioid receptor (Homo sapiens, UniProt P41143)
[2] = target: Kappa-type opioid receptor (Homo sapiens, UniProt P41145)
Mu-type opioid receptor = Mu-type opioid receptor (Homo sapiens, UniProt P35372)
Sequence of Mu-type opioid receptor (P35372 whole entry): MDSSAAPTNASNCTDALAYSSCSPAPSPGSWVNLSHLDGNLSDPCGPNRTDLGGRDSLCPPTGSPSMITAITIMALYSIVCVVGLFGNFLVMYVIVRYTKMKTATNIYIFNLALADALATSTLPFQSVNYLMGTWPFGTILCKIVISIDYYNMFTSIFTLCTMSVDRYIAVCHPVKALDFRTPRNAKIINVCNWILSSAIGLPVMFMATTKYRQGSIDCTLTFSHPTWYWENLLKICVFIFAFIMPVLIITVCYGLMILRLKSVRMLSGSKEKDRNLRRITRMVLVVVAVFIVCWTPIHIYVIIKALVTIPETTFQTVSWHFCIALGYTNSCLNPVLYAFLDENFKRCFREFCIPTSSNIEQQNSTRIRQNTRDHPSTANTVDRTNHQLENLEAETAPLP

Sequence of Delta-type opioid receptor (P41143 whole entry): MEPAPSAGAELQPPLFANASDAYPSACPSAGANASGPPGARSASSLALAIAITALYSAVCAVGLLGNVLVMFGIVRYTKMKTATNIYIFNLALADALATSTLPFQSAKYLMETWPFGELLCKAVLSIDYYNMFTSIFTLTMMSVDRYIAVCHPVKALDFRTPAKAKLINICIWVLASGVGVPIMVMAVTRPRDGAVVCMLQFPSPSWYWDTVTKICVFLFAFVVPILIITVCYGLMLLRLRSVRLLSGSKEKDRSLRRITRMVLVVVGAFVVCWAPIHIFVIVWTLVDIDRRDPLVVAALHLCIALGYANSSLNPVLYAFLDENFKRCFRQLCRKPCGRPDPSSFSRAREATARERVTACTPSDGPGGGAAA
Sequence of Kappa-type opioid receptor (P41145 whole entry): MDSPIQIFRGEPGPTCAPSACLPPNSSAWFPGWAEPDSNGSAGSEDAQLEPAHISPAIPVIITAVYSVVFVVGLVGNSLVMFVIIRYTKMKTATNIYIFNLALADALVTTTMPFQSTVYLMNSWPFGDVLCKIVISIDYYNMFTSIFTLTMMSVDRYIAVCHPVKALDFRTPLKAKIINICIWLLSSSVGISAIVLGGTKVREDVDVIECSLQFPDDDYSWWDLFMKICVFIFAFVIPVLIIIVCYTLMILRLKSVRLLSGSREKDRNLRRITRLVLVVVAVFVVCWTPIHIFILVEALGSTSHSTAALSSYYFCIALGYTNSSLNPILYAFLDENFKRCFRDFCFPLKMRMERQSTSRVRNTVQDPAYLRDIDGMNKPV

Compound | Ki [1] [nM] | Ki [2] [nM] | Ki (Mu-type opioid receptor) [nM]
C[C@H](NC(=O)CNC(=O)[C@@H](NC(=O)[C@H](Cc1ccccc1)NC(=O)CNC(=O)CNC(=O)CNCc1ccccc1)[C@@H](C)O)C(=O)N[C@@H](CCCN=C(N)N)C(=O)N[C@@H](CCCCN)C(=O)N[C@@H](CO)C(=O)N[C@@H](C)C(=O)N[C@@H](CCCN=C(N)N)C(=O)N[C@@H](CCCCN)C(N)=O [H-PHE-(R)-GLY-GLY-PHE-THR-GLY-ALA-ARG-LYS-SER-ALA-ARG-LYS-NH2] | > 10000 | 1100 | > 10000
CC(=O)N[C@@H](CCCN=C(N)N)C(=O)N[C@H](CC1CCCCC1)C(=O)N[C@H]1CC[C@@H]2SC[C@@H](C(=O)N[C@H](CCCN=C(N)N)C(=O)N[C@H](Cc3ccc(Cl)cc3)C(N)=O)N2C1=O [NOCICEPTIN RECEPTOR ANTAGONIST PEPTIDE III-BTD] | 60.3 | 11.5 | 8.91
